In paper PMC5513037, “Examining the influence of specificity ligands and ATP-competitive ligands on the overall effectiveness of bivalent kinase inhibitors” (Proteome Science, 2017):
pIC50: −log10 of the molar value.

Columns and labels:
NRBP1 = NRBP1 (Homo sapiens, UniProt Q9UHY1); experiment: biochemical
NEK9 = target: T1, NEK9 (Homo sapiens, UniProt Q8TD19); experiment: KAM-matrix competition in K562 lysate; assay type: binding
T1 construct: endogenous in cells; host or cells: K562
T1 sequence (Q8TD19 1-979): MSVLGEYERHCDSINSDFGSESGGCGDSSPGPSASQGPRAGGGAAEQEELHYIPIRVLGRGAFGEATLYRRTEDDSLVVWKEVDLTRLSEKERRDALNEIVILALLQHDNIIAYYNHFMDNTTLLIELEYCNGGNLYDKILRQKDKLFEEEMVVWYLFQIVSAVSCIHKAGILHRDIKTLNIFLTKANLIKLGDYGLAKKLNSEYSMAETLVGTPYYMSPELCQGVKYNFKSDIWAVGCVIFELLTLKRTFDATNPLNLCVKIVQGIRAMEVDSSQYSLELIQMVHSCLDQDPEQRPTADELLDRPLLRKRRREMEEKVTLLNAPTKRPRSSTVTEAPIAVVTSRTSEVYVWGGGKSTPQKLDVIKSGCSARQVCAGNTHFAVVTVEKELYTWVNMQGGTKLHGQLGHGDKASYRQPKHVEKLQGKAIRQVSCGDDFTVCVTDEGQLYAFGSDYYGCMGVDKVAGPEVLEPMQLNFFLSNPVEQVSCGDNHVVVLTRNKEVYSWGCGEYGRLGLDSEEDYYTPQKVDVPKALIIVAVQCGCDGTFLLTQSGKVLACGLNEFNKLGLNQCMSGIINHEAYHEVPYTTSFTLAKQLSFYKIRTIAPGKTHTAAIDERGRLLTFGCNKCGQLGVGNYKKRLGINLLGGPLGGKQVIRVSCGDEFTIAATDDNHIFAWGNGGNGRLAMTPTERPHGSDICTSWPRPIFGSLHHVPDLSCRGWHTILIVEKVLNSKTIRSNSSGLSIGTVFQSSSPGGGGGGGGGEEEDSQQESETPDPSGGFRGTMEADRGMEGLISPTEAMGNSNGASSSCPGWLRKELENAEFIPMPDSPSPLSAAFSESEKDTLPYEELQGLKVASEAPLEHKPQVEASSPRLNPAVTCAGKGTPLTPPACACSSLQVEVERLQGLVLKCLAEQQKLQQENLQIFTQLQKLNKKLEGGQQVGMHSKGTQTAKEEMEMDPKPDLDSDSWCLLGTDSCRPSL
Protocol: (§1) For synthesis of KAM-derivatized resin, packed NHS-activated sepharose 4 fast flow resin (volume = 2 mL; GE Healthcare) was washed with anhydrous DMSO (3 × 10 mL). To the washed NHS-activated sepharose resin was added 0.5 mM KAM in anhydrous DMSO (8 mL; 2 μmol compound/mL of resin), followed by the addition of triethylamine (30 μL). The reaction mixture was vortexed to mix and pelleted by centrifugation (100 x g, 2 min). An aliquot of the supernatant (50 μL) was saved for LC/MS analysis. The reaction mixture was allowed incubate overnight at room temp with end-over-end rotating agitation. On the following day, the reaction mixture was pelleted by centrifugation (100 x g, 2 min). An aliquot of the supernatant (50 μL) was saved for LC/MS analysis. […] 2-(2-Aminoethoxy)ethanol (100 μL; Sigma-Aldrich) was added to the reaction mixture, vortexed, and incubate overnight at room temp with end-over-end agitation. The KAM-derivatized resin was then washed with anhydrous DMSO (3 × 10 mL) and 95% EtOH (3 × 10 mL).
(§2) Data were visualized for further analysis using Spotfire DXP.

GSK3A = target: T2, GSK3A (Homo sapiens, UniProt P49840); experiment: KAM-matrix competition in K562 lysate; assay type: binding
T2 construct: endogenous in cells; host or cells: K562
T2 sequence (P49840 whole entry): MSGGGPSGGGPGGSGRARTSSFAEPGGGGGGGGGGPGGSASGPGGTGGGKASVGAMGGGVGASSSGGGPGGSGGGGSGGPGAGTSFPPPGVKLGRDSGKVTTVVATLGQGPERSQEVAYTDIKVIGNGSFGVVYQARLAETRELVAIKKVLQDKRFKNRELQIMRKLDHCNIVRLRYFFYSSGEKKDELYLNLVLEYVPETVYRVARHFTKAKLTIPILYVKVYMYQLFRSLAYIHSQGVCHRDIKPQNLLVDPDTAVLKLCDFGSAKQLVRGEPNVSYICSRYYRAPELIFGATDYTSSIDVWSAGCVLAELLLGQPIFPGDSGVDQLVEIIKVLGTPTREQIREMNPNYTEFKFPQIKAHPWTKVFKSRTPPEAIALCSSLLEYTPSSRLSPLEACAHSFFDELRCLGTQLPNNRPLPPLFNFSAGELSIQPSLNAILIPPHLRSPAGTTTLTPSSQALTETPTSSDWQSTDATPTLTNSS
Protocol: as §1, §2

ATM = ATM (Homo sapiens, UniProt Q13315); experiment: KAM-matrix competition in K562 lysate; assay type: binding; design: endogenous in cells; host or cells: K562;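 as to 0.001 uM KAM: median log10 fold change of treatment over DMSO control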;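 as to 0.01 uM KAM: median log10 fold change of treatment over DMSO control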;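 as to 0.1 uM KAM: median log10 fold change of treatment over DMSO control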;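 as to 1 uM KAM: median log10 fold change of treatment over DMSO control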;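 as to 10 uM KAM: median log10 fold change of treatment over DMSO control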
Sequence of ATM (Q13315 whole entry): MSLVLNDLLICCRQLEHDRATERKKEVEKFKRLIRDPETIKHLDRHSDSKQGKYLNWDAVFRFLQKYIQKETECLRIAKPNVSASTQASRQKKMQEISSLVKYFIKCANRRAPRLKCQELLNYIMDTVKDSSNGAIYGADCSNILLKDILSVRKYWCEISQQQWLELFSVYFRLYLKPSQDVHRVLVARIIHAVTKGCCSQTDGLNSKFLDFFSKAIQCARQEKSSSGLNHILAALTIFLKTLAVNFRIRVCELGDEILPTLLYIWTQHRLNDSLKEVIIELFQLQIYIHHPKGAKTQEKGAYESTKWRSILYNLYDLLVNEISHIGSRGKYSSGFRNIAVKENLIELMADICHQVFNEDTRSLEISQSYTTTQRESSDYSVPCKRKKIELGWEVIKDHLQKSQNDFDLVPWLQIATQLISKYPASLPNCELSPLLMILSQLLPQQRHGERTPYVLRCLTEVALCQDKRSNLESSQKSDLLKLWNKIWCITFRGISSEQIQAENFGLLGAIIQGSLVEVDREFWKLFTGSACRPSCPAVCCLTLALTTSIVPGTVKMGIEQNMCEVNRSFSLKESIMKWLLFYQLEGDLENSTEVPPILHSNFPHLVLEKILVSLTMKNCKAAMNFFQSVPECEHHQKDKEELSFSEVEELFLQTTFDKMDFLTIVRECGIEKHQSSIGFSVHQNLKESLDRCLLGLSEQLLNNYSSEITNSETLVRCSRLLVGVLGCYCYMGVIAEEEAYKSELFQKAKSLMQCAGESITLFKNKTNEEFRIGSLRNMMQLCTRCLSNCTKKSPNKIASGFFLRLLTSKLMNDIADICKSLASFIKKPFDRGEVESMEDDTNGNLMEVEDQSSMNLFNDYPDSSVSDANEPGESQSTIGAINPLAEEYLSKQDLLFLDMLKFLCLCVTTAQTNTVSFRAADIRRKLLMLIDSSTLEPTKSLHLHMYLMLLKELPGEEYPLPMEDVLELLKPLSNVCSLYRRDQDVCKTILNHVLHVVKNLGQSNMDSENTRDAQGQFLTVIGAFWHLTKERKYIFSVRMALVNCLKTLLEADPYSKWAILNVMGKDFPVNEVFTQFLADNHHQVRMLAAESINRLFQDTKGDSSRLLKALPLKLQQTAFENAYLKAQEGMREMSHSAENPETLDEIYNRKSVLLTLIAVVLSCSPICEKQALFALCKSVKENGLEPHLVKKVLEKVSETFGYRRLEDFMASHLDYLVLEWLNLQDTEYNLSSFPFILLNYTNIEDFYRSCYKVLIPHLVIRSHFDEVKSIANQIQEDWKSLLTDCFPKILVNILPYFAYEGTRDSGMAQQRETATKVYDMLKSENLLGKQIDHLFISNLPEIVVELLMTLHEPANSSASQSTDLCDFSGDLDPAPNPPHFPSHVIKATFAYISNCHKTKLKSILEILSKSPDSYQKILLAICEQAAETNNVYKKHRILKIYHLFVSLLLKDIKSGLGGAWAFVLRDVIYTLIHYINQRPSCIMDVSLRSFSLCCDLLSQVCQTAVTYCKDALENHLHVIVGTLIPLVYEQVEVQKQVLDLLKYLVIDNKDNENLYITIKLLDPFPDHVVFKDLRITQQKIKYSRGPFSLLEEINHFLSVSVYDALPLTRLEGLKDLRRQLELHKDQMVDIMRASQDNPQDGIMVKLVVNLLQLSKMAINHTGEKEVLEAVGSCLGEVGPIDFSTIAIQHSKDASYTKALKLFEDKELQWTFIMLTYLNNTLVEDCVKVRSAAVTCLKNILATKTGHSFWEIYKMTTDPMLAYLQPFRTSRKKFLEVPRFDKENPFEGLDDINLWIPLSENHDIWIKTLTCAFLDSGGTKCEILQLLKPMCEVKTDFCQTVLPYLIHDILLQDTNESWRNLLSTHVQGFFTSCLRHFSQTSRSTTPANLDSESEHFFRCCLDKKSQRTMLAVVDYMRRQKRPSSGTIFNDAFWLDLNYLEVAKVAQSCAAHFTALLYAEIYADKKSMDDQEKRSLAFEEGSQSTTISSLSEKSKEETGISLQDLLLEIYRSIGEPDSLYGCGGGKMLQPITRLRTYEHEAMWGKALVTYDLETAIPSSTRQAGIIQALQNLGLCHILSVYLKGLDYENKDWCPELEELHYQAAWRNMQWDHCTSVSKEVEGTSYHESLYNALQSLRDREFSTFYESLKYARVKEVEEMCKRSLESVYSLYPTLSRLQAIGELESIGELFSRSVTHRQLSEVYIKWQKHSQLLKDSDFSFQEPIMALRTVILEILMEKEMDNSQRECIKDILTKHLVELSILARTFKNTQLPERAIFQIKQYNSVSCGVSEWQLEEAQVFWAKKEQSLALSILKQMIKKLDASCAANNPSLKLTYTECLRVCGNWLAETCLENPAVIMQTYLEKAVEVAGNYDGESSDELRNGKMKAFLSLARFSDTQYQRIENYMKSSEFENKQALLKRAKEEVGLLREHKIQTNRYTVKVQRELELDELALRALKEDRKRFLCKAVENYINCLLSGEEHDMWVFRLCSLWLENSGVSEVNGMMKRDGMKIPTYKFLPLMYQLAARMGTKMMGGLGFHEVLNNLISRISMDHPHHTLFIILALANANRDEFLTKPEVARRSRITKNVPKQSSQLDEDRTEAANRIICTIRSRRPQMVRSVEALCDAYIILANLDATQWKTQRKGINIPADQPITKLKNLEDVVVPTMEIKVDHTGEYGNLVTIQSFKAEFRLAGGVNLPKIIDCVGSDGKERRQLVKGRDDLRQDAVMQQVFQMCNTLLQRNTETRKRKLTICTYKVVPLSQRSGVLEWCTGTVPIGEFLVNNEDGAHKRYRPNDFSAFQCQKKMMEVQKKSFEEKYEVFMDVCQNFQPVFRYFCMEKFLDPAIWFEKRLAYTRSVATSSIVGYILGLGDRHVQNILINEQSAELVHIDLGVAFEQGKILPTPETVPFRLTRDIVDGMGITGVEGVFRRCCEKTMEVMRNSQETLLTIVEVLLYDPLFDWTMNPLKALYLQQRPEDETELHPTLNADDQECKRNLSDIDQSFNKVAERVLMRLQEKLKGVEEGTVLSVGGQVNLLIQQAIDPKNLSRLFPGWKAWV
Protocol: Supplement 12953_2017_125_MOESM1_ESM.zip/MS_Supp Info.xlsx, sheet "KAM" | column: 10 uM KAM; 1 uM KAM; 0.1 uM KAM; 0.01 uM KAM; 0.001 uM KAM; RB50

ABL1 = experiment: KAM-matrix competition in K562 lysate; assay type: binding, human
Protocol: as §1, §2

MAP2K5 = target: T3, MAP2K5 (Homo sapiens, UniProt Q13163); experiment: KAM-matrix competition in K562 lysate; assay type: binding; conditions: relative to 0 uM KAM = 0;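 also: median log10 fold change of treatment over DMSO control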
T3 construct: endogenous in cells; host or cells: K562
T3 sequence (Q13163 1-448): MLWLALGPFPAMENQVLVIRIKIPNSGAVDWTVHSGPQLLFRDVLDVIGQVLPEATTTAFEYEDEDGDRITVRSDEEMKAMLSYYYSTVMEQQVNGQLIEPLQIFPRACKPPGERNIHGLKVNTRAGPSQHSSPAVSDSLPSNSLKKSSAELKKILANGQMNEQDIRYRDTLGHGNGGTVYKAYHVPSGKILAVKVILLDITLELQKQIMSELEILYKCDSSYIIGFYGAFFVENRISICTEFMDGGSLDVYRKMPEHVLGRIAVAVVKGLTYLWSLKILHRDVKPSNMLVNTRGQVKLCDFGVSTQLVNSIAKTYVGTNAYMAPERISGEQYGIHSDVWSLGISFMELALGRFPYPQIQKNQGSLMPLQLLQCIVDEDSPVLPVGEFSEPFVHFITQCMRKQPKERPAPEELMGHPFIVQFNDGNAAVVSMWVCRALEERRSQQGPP
Protocol: Supplement 12953_2017_125_MOESM1_ESM.zip/MS_Supp Info.xlsx, sheet "KAM" | column: 10 uM KAM; 1 uM KAM; 0.1 uM KAM; 0.01 uM KAM

Sequence of NRBP1 (Q9UHY1 whole entry): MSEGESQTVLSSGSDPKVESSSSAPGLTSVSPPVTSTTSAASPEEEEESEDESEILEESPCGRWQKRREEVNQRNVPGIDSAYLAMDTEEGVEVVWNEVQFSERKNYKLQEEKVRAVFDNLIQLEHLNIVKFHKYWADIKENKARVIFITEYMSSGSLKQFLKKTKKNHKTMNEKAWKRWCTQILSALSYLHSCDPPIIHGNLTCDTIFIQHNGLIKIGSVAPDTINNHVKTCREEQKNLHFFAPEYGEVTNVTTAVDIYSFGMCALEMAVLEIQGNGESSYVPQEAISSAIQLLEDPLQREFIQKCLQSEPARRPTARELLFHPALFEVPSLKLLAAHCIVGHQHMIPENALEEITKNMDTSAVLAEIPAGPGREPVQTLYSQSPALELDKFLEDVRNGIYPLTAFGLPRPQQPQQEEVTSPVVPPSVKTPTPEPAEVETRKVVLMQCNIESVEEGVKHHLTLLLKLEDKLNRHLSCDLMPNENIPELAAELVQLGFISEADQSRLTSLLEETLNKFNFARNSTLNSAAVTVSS

Cc1ccc(NC(=O)c2ccc(CN3CCN(C)CC3)cc2)cc1Nc1nccc(-c2cccnc2)n1 [Imatinib]
pIC50 (NRBP1): < 5.00

N#CCc1ccc(Nc2nc(NCCCN)cc(Nc3cc(C4CC4)[nH]n3)n2)cc1 [KAM]
median Log10 fold change (NEK9; 0.001 uM KAM): 0.04943
median Log10 fold change (NEK9; 0.01 uM KAM): -0.06045
median Log10 fold change (NEK9; 0.1 uM KAM): -0.3899
median Log10 fold change (NEK9; 1 uM KAM): -0.6054
median Log10 fold change (NEK9; 10 uM KAM): -0.6016
pIC50 (NEK9; NEK9, KAM-based affinity matrix, K562 lysates, read-out: RB50 (the source's name)): 7.07
median Log10 fold change (GSK3A; 0.001 uM KAM): 0.002359
median Log10 fold change (GSK3A; 0.01 uM KAM): -0.1849
median Log10 fold change (GSK3A; 0.1 uM KAM): -0.4791
median Log10 fold change (GSK3A; 1 uM KAM): -0.5469
median Log10 fold change (GSK3A; 10 uM KAM): -0.4904
pIC50 (GSK3A; GSK3A, KAM-based affinity matrix, K562 lysates, read-out: RB50 (the source's name)): 7.43
pIC50 (ATM; KAM 0.001-10 uM, read-out: RB50 (the source's name)): < 5.00
0.001 uM KAM (ATM; relative to 0 uM KAM = 0): -0.06745
0.01 uM KAM (ATM; relative to 0 uM KAM = 0): -0.02165
0.1 uM KAM (ATM; relative to 0 uM KAM = 0): -0.03764
1 uM KAM (ATM; relative to 0 uM KAM = 0): -0.07001
10 uM KAM (ATM; relative to 0 uM KAM = 0): 0.01755
median Log10 fold change (ABL1; 0.001 uM KAM): -0.005017
median Log10 fold change (ABL1; 0.01 uM KAM): -0.004253
median Log10 fold change (ABL1; 0.1 uM KAM): -0.1612
median Log10 fold change (ABL1; 1 uM KAM): -0.353
median Log10 fold change (ABL1; 10 uM KAM): -0.4826
pIC50 (ABL1; ABL1, KAM-based affinity matrix, K562 lysates, read-out: RB50 (the source's name)): 6.12
0.01 uM KAM (MAP2K5): 0.01409
0.1 uM KAM (MAP2K5): -0.1362
1 uM KAM (MAP2K5): -0.4773
10 uM KAM (MAP2K5): -0.5729
